Results taken from ChEMBL document CHEMBL5252651, “Discovery of Bioactive Metabolites by Acidic Stress to a Geldanamycin Producer, Streptomyces samsunensis” (J Nat Prod, 2023).
The source made the active and inactive calls.

Tests used:
Assay type in all cases: functional, organism-based
Staphylococcus = experiment: Antivirulence activity against methicillin-resistant Staphylococcus aureus USA300 LAC assessed as inhibition of Phenol soluble modulin production at 5 ug/ml incubated for 22 hrs by LC-MS analysis; settings: dose 5.0 µg/ml
Staphylococcus aureus [1] = experiment: Antibacterial activity against methicillin-resistant Staphylococcus aureus USA300 LAC assessed as bacterial growth inhibition at 5 ug/ml incubated for 22 hrs by microplate reader analysis; settings: dose 5.0 µg/ml
Staphylococcus aureus [2] = experiment: Anti-biofilm activity against methicillin-resistant Staphylococcus aureus USA300 LAC assessed as inhibition of biofilm formation incubated for 22 hrs by crystal violet staining based assay
Staphylococcus aureus [3] = experiment: Antivirulence activity against methicillin-resistant Staphylococcus aureus USA300 LAC assessed as change in […] transcriptional level at 10 ug/ml incubated for 8 to 16 hrs by qRT-PCR analysis; settings: dose 10.0 µg/ml, time 8-16 hrs
Staphylococcus aureus [4] = experiment: Antibacterial activity against methicillin-resistant Staphylococcus aureus USA300 LAC assessed as bacterial growth inhibition at 10 ug/ml incubated for 22 hrs by microplate reader analysis; settings: dose 10.0 µg/ml
Staphylococcus aureus [5] = experiment: Antivirulence activity against methicillin-resistant Staphylococcus aureus USA300 LAC assessed as change in RNAIII transcriptional level at 10 ug/ml incubated for 8 to 16 hrs by qRT-PCR analysis; settings: dose 10.0 µg/ml, time 8-16 hrs

CO[C@H]1C[C@H](C)CC2=C(O)C(=O)C=C(NC(=O)/C(C)=C/[C@H](O)C[C@H](OC)[C@@H](OC(N)=O)/C(C)=C/[C@H](C)[C@H]1O)C2=O
inactive: inhibition (Staphylococcus) | Activity (Staphylococcus aureus [1]) | Activity (Staphylococcus aureus [2])

COc1c(-c2ccccc2)cc(O[C@@H]2O[C@H](C(=O)O)[C@@H](O)[C@H](O)[C@H]2O)c(-c2ccccc2)c1O
inactive: inhibition (Staphylococcus) | Activity (Staphylococcus aureus [1]) | Activity (Staphylococcus aureus [2])

COC1=C2C[C@@H](C)C[C@H](OC)[C@H](O)[C@@H](C)/C=C(\C)[C@H](OC(N)=O)[C@@H](OC)/C=C\C=C(/C)C(=O)NC(=CC1=O)C2=O
inactive: inhibition (Staphylococcus) | Activity (Staphylococcus aureus [1]) | Activity (Staphylococcus aureus [3]) | Activity (Staphylococcus aureus [2]) | Activity (Staphylococcus aureus [4]) | Activity (Staphylococcus aureus [5])

CO[C@@H](C[C@H](C)Cc1cc(O)cc(NC(C)=O)c1)[C@H](O)[C@H](C)C(=O)O
inactive: inhibition (Staphylococcus) | Activity (Staphylococcus aureus [1]) | Activity (Staphylococcus aureus [3]) | Activity (Staphylococcus aureus [2]) | Activity (Staphylococcus aureus [4]) | Activity (Staphylococcus aureus [5])

Cc1cc(C[C@H](NC(=O)/C=C/C=C/CO)C(=O)O)ccc1O
inactive: inhibition (Staphylococcus) | Activity (Staphylococcus aureus [1]) | Activity (Staphylococcus aureus [2])

CO[C@H]1/C=C\C=C(/C)C(=O)Nc2cc(O)c(O)c(c2O)C[C@@H](C)C[C@H](OC)[C@H](O)[C@@H](C)/C=C(\C)[C@@H]1OC(N)=O
inactive: inhibition (Staphylococcus) | Activity (Staphylococcus aureus [1]) | Activity (Staphylococcus aureus [2])

CO[C@H]1C[C@H](C)CC2=C(O)C(=O)C=C(NC(=O)/C(C)=C/[C@@H](O)C[C@H](OC)[C@@H](OC(N)=O)/C(C)=C/[C@H](C)[C@H]1O)C2=O
inactive: inhibition (Staphylococcus) | Activity (Staphylococcus aureus [1]) | Activity (Staphylococcus aureus [2])

O=C(O)/C=C/C1=C(c2cccc(O)c2)C(=O)CC[C@H]1O
inactive: inhibition (Staphylococcus) | Activity (Staphylococcus aureus [1]) | Activity (Staphylococcus aureus [2])

CO[C@@H](C[C@H](C)Cc1cc(O)cc(NC(C)=O)c1)C(=O)O
inactive: inhibition (Staphylococcus) | Activity (Staphylococcus aureus [1]) | Activity (Staphylococcus aureus [2])

CC(=O)Nc1cc(O)cc(C[C@@H](C)C(=O)O)c1
inactive: inhibition (Staphylococcus) | Activity (Staphylococcus aureus [1]) | Activity (Staphylococcus aureus [2])

CO[C@H]1/C=C\C=C(/C)C(=O)NC2=CC(=O)C(O)=C(C[C@@H](C)C[C@H](OC)[C@H](O)[C@@H](C)/C=C(\C)[C@@H]1OC(N)=O)C2=O
inactive: inhibition (Staphylococcus) | Activity (Staphylococcus aureus [1]) | Activity (Staphylococcus aureus [3]) | Activity (Staphylococcus aureus [2]) | Activity (Staphylococcus aureus [4]) | Activity (Staphylococcus aureus [5])
